The record followed here is BindingDB's records for patent US20230286943 (Sanofi, 2023).

The structures appear in SMILES notation.

For the test, the target named is T1, Interleukin-17A (Homo sapiens, UniProt Q16552).
T1 sequence (Q16552 whole entry): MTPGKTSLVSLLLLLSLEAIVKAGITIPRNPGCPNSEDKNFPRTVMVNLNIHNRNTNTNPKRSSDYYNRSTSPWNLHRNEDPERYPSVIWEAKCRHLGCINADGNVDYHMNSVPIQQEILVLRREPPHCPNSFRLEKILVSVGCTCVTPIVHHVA
In words: AlphaLISA Assay. How it is done: The ability of the compounds to block binding of IL-17A to its receptor, IL-17RA, was analysed in a competition assay using AlphaLISA technology (Perkin Elmer). The assay is a bead based AlphaLISA where the IL-17RA is captured on the acceptor bead via an Fc tag and IL-17A is captured on the streptavidin donor bead via a biotinylated anti-IL-17A antibody.Assay buffer was prepared by adding 0.05% Tween-20 (v/v) and 0.1% BSA to Phosphate Buffered Saline (PBS). The assay was carried out in 384-well white low volume plates (Corning 4512). 10 μL of a 7.5 nM stock of human recombinant IL-17A (R&D Systems 7955-IL/CF) diluted in assay buffer was dispensed into the assay plate and compounds or DMSO vehicle control were added in a volume of 75 nL using a D300 dispenser (Hewlett Packard). The compounds were pre-incubated with the IL-17A for 24 h at room temperature (or for 30 min, where indicated by * in Table A below) prior to addition of 5 μL of a 5 nM stock of human recombinant IL-17RA/Fc chimera (R&D Systems 177-IR-100) diluted in assay buffer. […] The luminescence signal was measured using an Enspire plate reader (Perkin Elmer) with excitation at 680 nm and emission at 615 nm. Data were analysed using GraphPad Prism and fitted to a 4-parameter logistic equation.
Background: Alpha assays give light when donor and acceptor beads are brought close together.

One may read the IC50 as the concentration needed to halve the response being measured. Lower therefore signals greater potency. For `Cc1nnc(C)n1-c1ccc(NC(=O)[C@@H](NC(=O)c2ccnn2C)C2CCCCCC2)nc1` [US20230286943, Example 62], the IC50 turned out to be 794 nM.
